The text below walks through data of patent US12291504B2 (University of Pittsburgh—Of the Commonwealth System of …, priority 2018, dated 2025).

For assay [1], the target named is SULT1A3 spin-labeled at Cys 116 (Homo sapiens, UniProt P0DMM9, Q116C). The assay is described as follows: Initial-rate parameters, spin-labeled SULT1A3 mutant 116.
Description: Covalent Tagging of SULT1A3 Cys Constructs. Labeling of the SULT1A3 Cys constructs was performed as described previously (17,18,21). Briefly, 3-maleimido-PROXYL (spin label) or N-cyclohexylmaleimide (diamagnetic control) was added to an enzyme containing solution at 20-fold excess over reactive Cys. Unreacted Cys was monitored using DNTB (17,18,21); reactions were considered complete when >98% of the Cys was labeled. Reaction conditions: SULT1A3 (50 μM, monomer), 3-maleimido-PROXYL or N-cyclohexylmaleimide (1.0 mM), PAP (0.50 mM), KPO4 (50 mM), pH 7.5, 4±2° C. To prepare samples for NMR, reaction mixtures were dialyzed three times against 40 volumes of PAP (0.50 mM), KPO4 (50 mM), pD 7.4, D2O (>95%), 4±2° C.
Initial-Rate Studies. Initial-rate parameters for the labeled or mutant SULT1A3 constructs were determined using a previously described 1-HP assay (25). […] Reactions were monitored via fluorescence change associated with the conversion of 1-HP to 1-HP-S (λex=325 nm, λem=370 nm). Keq for the 1-HP sulfonation reaction is −250. Given the reaction conditions outlined above, ≥99% of 1-HP is converted to 1-HP-S, and ˜0.4% of PAPS is converted to PAP at equilibrium. […] Reaction progress curves were analyzed to obtain initial-rate parameters as described previously (26,27).
The next assay has as its target T1, SULT1A3 L67G (Homo sapiens, UniProt P0DMM9, L67G).
T1 construct: N-His/GST/MBP triple-tag (N, cleaved yes); made in house; host or cells: E. coli BL21(DE3)
The assay is described as follows: Binding-site mutation effect on Ki CMP8, L67G. In kind it is biochemical. The settings on record: L67G versus wild type. As for the experimental part: (§1) Initial-Rate Studies. Initial-rate parameters for the labeled or mutant SULT1A3 constructs were determined using a previously described 1-HP assay (25). Briefly, reactions were initiated by addition of PAPS (0.50 mM, 17×Km) to a solution containing enzyme (20 nM, active sites), 1-HP (2.0 μM, ˜24×Km), and KPO4 (50 mM), pH 7.5, 25±2° C. Reactions were monitored via fluorescence change associated with the conversion of 1-HP to 1-HP-S (λex=325 nm, λem=370 nm). Keq for the 1-HP sulfonation reaction is […]. Given the reaction conditions outlined above, ≥99% of 1-HP is converted to 1-HP-S, and ˜0.4% of PAPS is converted to PAP at equilibrium. […] Reaction progress curves were analyzed to obtain initial-rate parameters as described previously (26,27).
(§2) Inhibition studies. Inhibition parameters were determined under conditions identical to those described above (see, Initial-Rate Studies) except that [1-HP] was increased to 5.0 μM (˜61×Km) and inhibitor concentration was varied between 0.20-20×Ki. Ki was obtained using a least-squares fit to the following partial inhibition equation (25,28): v=kcat·(Ki+(1/kcat inh)·[I])/(Ki+[I]), where kcat inh is enzyme turnover at saturating substrates and allosteric inhibitor.
(§3) Confirming the Structure. The structure was validated by testing its ability to predict the consequences of mutations on the initial-rate parameters of the enzyme. […]

For assay [2], the system named is other major SULT isoforms found in liver and brain. The assay is described as follows: Inhibition of SULT isoforms by CMP8 (FIG. 1). In kind it is biochemical. The settings on record: at concentrations as high as 2 mM. As for the experimental part:
The initial rates of SULT catalyzed 1-HP sulfonation are plotted as a function of inhibitor concentration, and are normalized relative to [inhibitor]=0. Enzyme activity was monitored by the sulfonation dependent change in 1-HP fluorescence (λex=325 nm, λem=370 nm). Less than 5% of the concentration-limiting substrate converted at the reaction endpoint was consumed during initial-rate measurements. Each point is the average of three independent determinations. Conditions: SULT (20 nM, active sites), PAPS (0.50 mM, 17×Km), 1-HP (5.0 μM, 61×Km), KPO4 (50 mM), pH 7.5, 25±2° C.
Such inhibitors alleviate inhibition when used competitively against total inhibitors that bind at the same site. […] Given these favorable characteristics, it was reasoned that the CMP8-binding site offered a new target that could be used to control 1A3 activity. Consequently, the solution structure of the CMP8-binding site was determined using spin-label-triangulation NMR. As used herein, the “CMP8-binding site” refers to the SULT1A3 allosteric site defined herein, which is different from the catechin- and NSAID-binding sites.

The target in another assay is T2, SULT1A3 F222A, H226A (Homo sapiens, UniProt P0DMM9, F222A/H226A).
T2 construct: N-His/GST/MBP triple-tag (N, cleaved yes); made in house; host or cells: E. coli BL21(DE3)
Briefly: Binding-site mutation effect on Ki CMP8, F222A, H226A. The settings on record: H226A versus wild type. In kind it is biochemical. The procedure: as §1, §2, §3

The target of the next assay is SULT1A3 (Homo sapiens, UniProt P0DMM9). The assay is described as follows: SULT1A3 inhibition studies, 1-HP initial-rate fluorescence assay. In kind it is biochemical. More on the design: Wild-type and mutant SULT1A3 coding regions were inserted into a pGEX-6P expression vector; N-His/GST/MBP triple-tag (N, cleaved yes); made in house; host or cells: E. coli BL21(DE3); inhibition: dose or concentration left out as unconfirmed. The settings on record: for inhibition: read-out: SULT1A3 Enzyme Inhibition at Saturation/%. An outline of the steps:
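SULT1A3 (20 nM active sites) with PAPS 0.50 mM (17×Km) and 1-HP 5.0 μM (~61×Km) in 50 mM KPO4, pH 7.5, 25±2° C; inhibitor varied 0.20-20×Ki. Initial rates from 1-HP fluorescence (λex 325, λem 370 nm), triplicate; Ki by least-squares fit to a partial-inhibition equation.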

In the next assay the target is Dog (1D1) (Canis lupus familiaris, UniProt A0A8I3RXJ1). The assay is described as follows: Inhibition of SULT1A3 homologues in different species: Dog. In kind it is biochemical. As for the experimental part:
Compounds 12, 23 and 25 were also tested for Inhibition of SULT1A3 in different species. Inhibition of SULT1A3 Homologues in Different Species. SULT1A3 is only expressed in humans and higher primates. SULT1D1 is the isoform expressed in dogs and rodents that sulfonates neurotransmitters and is most similar to SULT1A3. Three synthesized allosteres (12, 23, and 25) were tested against both 1A3 and 1D1 from different species in order to explore testing in animal models. […] Mice have been engineered such that their SULT1A1/2 enzymes have been knocked out and replaced with the human versions of those isoforms.

A further assay deals with Mouse (1D1) (Mus musculus, UniProt Q3UZZ6). Briefly: Inhibition of SULT1A3 homologues in different species: Mouse. In kind it is biochemical. As for the experimental part: Compounds 12, 23 and 25 were also tested for Inhibition of SULT1A3 in different species.
Inhibition of SULT1A3 Homologues in Different Species. SULT1A3 is only expressed in humans and higher primates. SULT1D1 is the isoform expressed in dogs and rodents that sulfonates neurotransmitters and is most similar to SULT1A3. Three synthesized allosteres (12, 23, and 25) were tested against both 1A3 and 1D1 from different species in order to explore testing in animal models. […] Mice have been engineered such that their SULT1A1/2 enzymes have been knocked out and replaced with the human versions of those isoforms.

[3] abbreviates: ND = inhibition was not detected at 30 μM compound, parentheses one standard error, read-out: SULT1A3 Ki/μM.

Read-outs that look alike come from different tables or passages of the source.

Chain of SULT1A3 (P0DMM9 whole entry): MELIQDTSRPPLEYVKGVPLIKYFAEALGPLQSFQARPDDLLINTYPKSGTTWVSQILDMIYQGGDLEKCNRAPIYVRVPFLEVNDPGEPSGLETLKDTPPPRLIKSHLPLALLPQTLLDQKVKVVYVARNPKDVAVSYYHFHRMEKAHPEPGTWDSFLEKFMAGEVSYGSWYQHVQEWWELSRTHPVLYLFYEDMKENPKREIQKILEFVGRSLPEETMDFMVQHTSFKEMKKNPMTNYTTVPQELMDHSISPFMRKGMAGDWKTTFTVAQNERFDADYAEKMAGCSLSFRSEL
Chain of Mouse (1D1) (Q3UZZ6 whole entry, canonical isoform): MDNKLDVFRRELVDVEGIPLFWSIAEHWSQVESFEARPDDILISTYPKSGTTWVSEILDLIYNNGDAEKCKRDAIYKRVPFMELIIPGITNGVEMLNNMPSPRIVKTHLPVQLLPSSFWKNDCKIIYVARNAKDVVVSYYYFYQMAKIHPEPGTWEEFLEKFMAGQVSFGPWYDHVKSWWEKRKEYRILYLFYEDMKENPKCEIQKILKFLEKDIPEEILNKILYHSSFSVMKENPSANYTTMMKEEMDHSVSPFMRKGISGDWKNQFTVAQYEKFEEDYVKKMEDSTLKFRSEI
Chain of Dog (1D1) (A0A8I3RXJ1 entry or part of it): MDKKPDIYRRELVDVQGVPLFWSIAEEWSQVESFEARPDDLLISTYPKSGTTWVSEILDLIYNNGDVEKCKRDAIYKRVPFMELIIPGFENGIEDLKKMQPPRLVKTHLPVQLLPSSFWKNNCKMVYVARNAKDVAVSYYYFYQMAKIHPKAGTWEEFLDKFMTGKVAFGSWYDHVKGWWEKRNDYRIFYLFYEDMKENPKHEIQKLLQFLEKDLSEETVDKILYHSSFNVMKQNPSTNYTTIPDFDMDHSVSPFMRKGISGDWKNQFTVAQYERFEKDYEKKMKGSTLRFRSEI
T2 sequence (P0DMM9 whole entry F222A/H226A): as the sequence (P0DMM9 whole entry) above, with F222A, H226A counted along it
T1 sequence (P0DMM9 whole entry L67G): as the sequence (P0DMM9 whole entry) above, with L67G counted along it
Chain of SULT1A3 spin-labeled at Cys 116 (P0DMM9 whole entry Q116C): as the sequence (P0DMM9 whole entry) above, with Q116C counted along it

With `CC(C)Cc1ccc2cc(CO)ccc2n1` [Compound 8, (2-Isobutylquinolin-6-yl)methanol], the Ki in assay [1] is 37 nM; at SULT1A3 (FIG. 1, read-out: Ki of CMP8 for SULT1A3) it was 0.034 µM; at SULT1A3 (setting [3]), 0.034 µM; at SULT1A3 (WT enzyme, parentheses one standard deviation, read-out: Ki CMP8), 0.034 µM. Further, the “increase in Ki CMP8” value at SULT1A3 L67G was found to be 5.3 fold; on SULT1A3 F222A, H226A, 60 fold. In addition, in assay [2], the “inhibition of other major SULT isoforms” value is listed as “does not detectably inhibit”. Also, at SULT1A3 (competition against near-total inhibitors of the catechin and NSAID sites), the “alleviation of inhibition by epigallochatechin gallate or mefenamic acid” value was “did not alleviate inhibition”. On SULT1A3 (parentheses one standard error), the inhibition was 54%. Moreover, the “SULT1A3 turnover at saturation relative to absence of inhibitor” value on SULT1A3 (partial inhibitor, at saturation) came to 46%. Besides, on SULT1A3 (saturating CMP8), the “kcat (+CMP8)/kcat (−CMP8)” value came out at 0.46±0.08.
Take `CC(C)Cc1ccc2cc(CCC(N)=O)ccc2n1` [Compound 12]: the “Dog (1D1) % inh” value at Dog (1D1) is 83 (6) %. Further, the Ki was found to be 77 nM at Dog (1D1) (standard error in neighbouring cell); 79 nM at Mouse (1D1) (parentheses one standard error); 0.069 µM at SULT1A3 (setting [3]); 0.05 µM at SULT1A3 (standard error in neighbouring cell, read-out: Human (1A3) Ki). Besides, the “Mouse (1D1) % inh” value at Mouse (1D1) is on record as 82 (2) %. The “affinity for SULT1A3 (in words)” value at SULT1A3 is listed as “low micromolar affinity”. The inhibition on SULT1A3 (parentheses one standard error) was found to be 83%. On SULT1A3 (text b218), this molecule came in with an inhibition at saturation of 83%.
